System: Hela pLuc 705 cells
Test: Toxicity measurements (MTS cell proliferation assay)
Format: cell-based
Settings: peptide:2'-OMe ON complexes, 200 nM ON, 24 hours, most effective concentrations (FIG. 6)
Description: Cell proliferation was studied with CellTiter 96® A Queous Non-Radioactive Cell Proliferation Assay (MTS) according to the manufacturer's instructions. Briefly, 10000 Hela pLuc 705 cells per well were seeded 1 day prior to experiment on a 96-well plate in complete DMEM. Cells were treated with peptide: 2′-OMe ON complexes at four different molar ratios (5:1, 7:1, 10:1 and 20:1) for 4 hours in serum-free medium, followed by the addition of 10% serum containing medium and incubated for additional 20 hours. MTS was added according to the manufacturer's general protocol (Promega Biotech AB, Sweden). The conversion of MTS into aqueous, soluble formazan is accomplished by dehydrogenase enzymes found in metabolically active cells. The absorbance of formazan product was measured at 490 nm, which is directly proportional to the number of living cells in culture. Absorbance was measured on Tecan Sunrise microplate absorbance reader (Tecan Group Ltd., Switzerland) and the percentage of viable cells was determined using GraphPad Prism software 5.0 (Graphpad Software, CA, USA).

Compound | toxicity (cell viability by MTS)
CCCCCCCCCCCCCCCCCC(=O)N[C@@H](C)C(=O)NCC(=O)N[C@@H](Cc1ccc(OP(=O)(O)O)cc1)C(=O)N[C@@H](CC(C)C)C(=O)N[C@@H](CC(C)C)C(=O)NCC(=O)N[C@@H](CCCCN)C(=O)N[C@H](C(=O)N[C@@H](CC(N)=O)C(=O)N[C@@H](CC(C)C)C(=O)N[C@@H](CCCCN)C(=O)N[C@@H](C)C(=O)N[C@@H](CC(C)C)C(=O)N[C@@H](C)C(=O)N[C@@H](C)C(=O)N[C@@H](CC(C)C)C(=O)N[C@@H](C)C(=O)N[C@@H](CCCCN)C(=O)N[C@@H](CCCCN)C(=O)N[C@H](C(=O)N[C@@H](CC(C)C)C(N)=O)[C@@H](C)CC)[C@@H](C)O [NickFect 1, Stearyl-AGY(PO3)LLGKTNLKALAALAKKIL-NH2] | not toxic
CCCCCCCCCCCCCCCCCC(=O)N[C@@H](C)C(=O)NCC(=O)N[C@@H](Cc1ccc(O)cc1)C(=O)N[C@@H](CC(C)C)C(=O)N[C@@H](CC(C)C)C(=O)NCC(=O)N[C@@H](CCCCN)C(=O)N[C@H](C(=O)N[C@@H](CC(N)=O)C(=O)N[C@@H](CC(C)C)C(=O)N[C@@H](CCCCN)C(=O)N[C@@H](C)C(=O)N[C@@H](CC(C)C)C(=O)N[C@@H](C)C(=O)N[C@@H](C)C(=O)N[C@@H](CC(C)C)C(=O)N[C@@H](C)C(=O)N[C@@H](CCCCN)C(=O)N[C@@H](CCCCN)C(=O)N[C@H](C(=O)N[C@@H](CC(C)C)C(N)=O)[C@@H](C)CC)[C@@H](C)OP(=O)(O)O [NickFect 2, Stearyl-AGYLLGKT(PO3)NLKALAALAKKIL-NH2] | not toxic
